Converted amounts (≈) assume the structure as drawn. Like-named read-outs stand apart in the source and are kept apart here.
What was measured:
[1] = test system: Escherichia coli MC4100 harboring the IMP4213 (E. coli IMP); experiment: microbe, parasite or virus in culture; assay type: cell-based; details: Escherichia coli, 22 h, read-out: MIC (μg/mL) E. coli IMP, E. coli MC4100 IMP4213, increased outer-membrane permeability; 35° C., 22 hours
Summary of the method: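 Ten 2-fold dilutions, from 4 μg/mL or from 0.5 μg/mL depending on protocol, are challenged with bacteria at OD600 0.0005 in Tween-80-supplemented cation-adjusted Mueller Hinton Broth. Plates incubate 22 hours at 35° C per CLSI. The E. coli IMP4213 strain has increased outer-membrane permeability.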

[2] = target: T1, SpsB (Staphylococcus aureus signal peptidase) (Staphylococcus aureus, UniProt P0A070); experiment: cell-based; assay type: biochemical; details: SpsB IC50, whole-cell S. aureus (USA300 background, overexpressing SpsB) as SpsB source; fluorogenic peptide substrate, kinetic read 30 min
T1 construct: This assay uses a suspension of Staphylococcus aureus cells as a source of SpsB instead of recombinant SpsB protein; endogenous in cells; host or cells: S. aureus, USA300 background, overexpressing SpsB (whole-cell suspension from frozen pellets)
T1 sequence (P0A070 whole entry): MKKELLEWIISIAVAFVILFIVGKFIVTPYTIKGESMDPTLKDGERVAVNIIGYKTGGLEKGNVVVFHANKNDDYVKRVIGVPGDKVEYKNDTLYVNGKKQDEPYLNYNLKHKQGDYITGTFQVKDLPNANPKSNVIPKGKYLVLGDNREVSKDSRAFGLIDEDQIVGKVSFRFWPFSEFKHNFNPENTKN
Summary of the method: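 Cleavage of an internally quenched (Dabcyl)βAla-KPAKAAE(Edans) peptide, added as 20 μM solution mixed 1:1 with cells, was followed for 30 min at 340/490 nm. SpsB came from a suspension of SpsB-overexpressing USA300 S. aureus in Tween-80-containing PBS buffer. Slopes plotted against 3-fold compound dilutions gave IC50.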

[3] = test system: Methicillin Resistant Staphylococcus aureus strain USA 300, NRS384; experiment: Minimum inhibitory concentration, broth micro-dilution (CLSI), S. aureus; assay type: cell-based; details: Staphylococcus aureus, MRSA / NRS 384 / USA300, 22 h, 35° C., 22 hours
Summary of the method: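 Colonies grown 20 hours at 35° C were suspended in cation-adjusted Mueller Hinton Broth with 0.002% Tween-80. Cells were then added to 2-fold compound dilutions starting at 4 or 0.5 μg/mL, at OD600 0.0005.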

[4] = test system: Escherichia coli ATCC 25922; experiment: Minimum inhibitory concentration, broth micro-dilution (CLSI), E. coli; assay type: cell-based; details: Escherichia coli, ATCC25922, 22 h, 35° C., 22 hours
[5] = MRSA USA 300 NRS384, read-out: MIC (μg/mL) S. aureus
[6] = E. coli ATCC 25922, read-out: MIC (μg/mL) E. coli
[7] = read-out: MIC (μg/mL) S. aureus, MRSA USA 300 NRS384
[8] = read-out: MIC (μg/mL) E. coli, E. coli ATCC 25922

Row | Compound | MIC [1] [µg/mL] | IC50 [2] [pM] | MIC [3, 5] [µg/mL] | MIC [4, 6] [µg/mL] | MIC [3, 7] [µg/mL] | MIC [4, 8] [µg/mL]
1 | CCCCCCCCCCNCCC(=O)N[C@@H](CO)C(=O)N(C)[C@@H]1C(=O)N[C@@H](C)C(=O)N[C@H](C(=O)NCC#N)Cc2ccc(O)c(c2)-c2cc1ccc2O [Compound 469] | > 4 | 5000 | 4 (≈ 5.33 µM) | > 64 | – | –
2 | C[C@@H]1NC(=O)[C@@H](N(C)C(=O)[C@H](CO)NC(=O)c2cnc(-c3ccc(Cl)cc3)nc2)c2ccc(OCCN)c(c2)-c2cc(ccc2OCCN)C[C@@H](C(=O)NCC#N)NC1=O [Compound 234] | 0.25 (≈ 0.297 µM) | 3900 | – | – | 1 (≈ 1.19 µM) | 32 (≈ 38 µM)
3 | CCCCCCCC(=O)c1ccc(C(=O)N[C@@H](CCN)C(=O)N(C)[C@@H]2C(=O)N[C@@H](C)C(=O)N[C@H](C(=O)NCC#N)Cc3ccc(OCCN)c(c3)-c3cc2ccc3OCCN)c(Cl)c1 [Compound 413] | 0.0078 (≈ 0.00864 µM) | 880 | 0.031 (≈ 0.0343 µM) | 0.25 (≈ 0.277 µM) | – | –
4 | C[C@@H]1NC(=O)[C@@H](N(C)C(=O)[C@H](CCCCN)NC(=O)c2ccc(Oc3ccc(Cl)cc3)cc2)c2ccc(OCCN)c(c2)-c2cc(ccc2OCCN)C[C@@H](C(=O)NCC#N)NC1=O [Compound 116] | 0.063 (≈ 0.0703 µM) | 1300 | – | – | 0.13 (≈ 0.145 µM) | 12 (≈ 13.4 µM)
5 | CCCCCCCc1cc(C)c(C(=O)N[C@@H](CCN)C(=O)N(C)[C@@H]2C(=O)N[C@@H](C)C(=O)N[C@H](C(=O)NCC#N)Cc3ccc(OCCN)c(c3)-c3cc2ccc3OCCN)c(F)c1 [Compound 188] | 0.018 (≈ 0.0206 µM) | 670 | 0.047 (≈ 0.0539 µM) | 0.22 (≈ 0.252 µM) | – | –
6 | CCCCCCCc1ccc(C(=O)N[C@@H](CO)C(=O)N[C@@H](CCN)C(=O)N(C)[C@@H]2C(=O)N[C@@H](C)C(=O)N[C@H](C(=O)NCC#N)Cc3ccc(OCCN)c(c3)-c3cc2ccc3OCCN)cc1 [Compound 383] | 0.023 (≈ 0.0248 µM) | 880 | – | – | 0.018 (≈ 0.0194 µM) | 4 (≈ 4.31 µM)
7 | CCCCCCCCCCNCCC(=O)N(C)[C@@H]1C(=O)N[C@@H](C)C(=O)N[C@H](C(=O)NCC#N)Cc2ccc(O)c(c2)-c2cc1ccc2OCCN [Compound 316] | 2 (≈ 2.83 µM) | 840 | 0.13 (≈ 0.184 µM) | > 64 | – | –
8 | CCCCCCCCC(F)C(=O)NC(CO)C(=O)N(C)C1C(=O)NC(C)C(=O)NC(C(=O)NCC#N)Cc2ccc(OCCN)c(c2)-c2cc1ccc2OCCN (single isomer, unassigned) [Compound 394-P1] | 0.25 (≈ 0.314 µM) | 3900 | – | – | 1 (≈ 1.25 µM) | > 64
9 | CC(C)Cc1ccc(-c2ccc(C(=O)N[C@@H](CCN)C(=O)N(C)[C@@H]3C(=O)N[C@@H](C)C(=O)N[C@H](C(=O)NCC#N)Cc4ccc(OCCN)c(c4)-c4cc3ccc4OCCN)c(C(F)F)c2)cc1 [Compound 172] | 0.016 (≈ 0.0173 µM) | 1000 | 0.094 (≈ 0.102 µM) | 0.19 (≈ 0.206 µM) | – | –
10 | CCCCCCSc1ccc(C(=O)N[C@@H](CCN)C(=O)N(C)[C@@H]2C(=O)N[C@@H](C)C(=O)N[C@H](C(=O)NCC#N)Cc3ccc(OCCN)c(c3)-c3cc2ccc3OCCN)c(C)c1 [Compound 391] | 0.016 (≈ 0.0183 µM) | 990 | 0.047 (≈ 0.0539 µM) | 0.5 (≈ 0.573 µM) | – | –
11 | CCCCc1ccc(-c2ccc(C(=O)N[C@@H](CCCCN)C(=O)N(C)[C@@H]3C(=O)N[C@@H](C)C(=O)N[C@H](C(=O)NCC#N)Cc4ccc(OCCN)c(c4)-c4cc3ccc4OCCN)cc2)cc1 [Compound 331] | 0.023 (≈ 0.0255 µM) | 340 | – | – | 0.063 (≈ 0.0698 µM) | 0.69 (≈ 0.765 µM)
12 | C[C@@H]1NC(=O)[C@@H](N(C)C(=O)CCNCc2ccc(-c3ccc(Cl)cc3)cc2)c2ccc(OCCN)c(c2)-c2cc(ccc2OCCN)C[C@@H](C(=O)NCC#N)NC1=O [Compound 461] | 4 (≈ 4.94 µM) | 740 | 0.063 (≈ 0.0778 µM) | > 64 | – | –
13 | CCCCCCCCC(=O)N[C@@H](CCN)C(=O)N(C)[C@@H]1C(=O)N[C@@H](C)C(=O)N[C@H](C(=O)NCC#N)Cc2ccc(OCCN)c(c2)-c2cc1ccc2OCCN [Compound 106] | 0.13 (≈ 0.167 µM) | 1700 | 0.38 (≈ 0.488 µM) | 24 (≈ 30.8 µM) | – | –
14 | CCCCCCCOc1ccc(C(=O)N[C@@H](CCN)C(=O)N(C)[C@@H]2C(=O)N[C@@H](C)C(=O)N[C@H](C(=O)NCC#N)Cc3ccc(OCCN)c(c3)-c3cc2ccc3OCCN)c(C(F)F)c1 [Compound 442] | 0.0078 (≈ 0.00861 µM) | 2900 | 0.063 (≈ 0.0695 µM) | 0.19 (≈ 0.21 µM) | – | –
